According to patent US20150210729A1, “MACROLIDE DERIVATIVES, PREPARATION THEREOF AND THERAPEUTIC USE THEREOF” (priority 2012, published 2015):
Values after ≈ are worked out from the molar mass of the structure shown.

Each molecule was assayed on Mycobacterium tuberculosis H37Rv (assay: Alamar blue (MABA) test, MIC on Mycobacterium tuberculosis H37Rv). Details: H37RV, read-out: MIC (μM) MTb H37Rv.
Assay type: cell-based

Row | SMILES | MIC [µM]
1 | CON=C1C[C@@H](C)O[C@@H](O[C@@H]2[C@@H](C)[C@H](O[C@H]3C[C@@H](C)N(C)C[C@H](C)O3)[C@@H](C)C(=O)O[C@H](C(C)CO[C@@H]3O[C@H](C)[C@@H](O)[C@@H](OC)[C@H]3OC)[C@H](C)[C@@H](OC(=O)CC(C)C)[C@@H](C)C(=O)[C@@](C)(OC(=O)N(C)C)C[C@@H]2C)[C@@H]1O (stereo partly drawn) [Compound 3, (2R,3S,4R,5R,7S,9S,10S,11R,12S,13R)-7-[(dimethylcarbamoyl)oxy]-2-(1-{[(2R,3R,4R,5R,6R)-5-hydroxy-3,4-dimethoxy-6-methyltetrahydro-2H-pyran-2-yl]oxy}propan-2-yl)-10-{[(2S,3R,6R)-3-hydroxy-4-(methoxyimino)-6-methyltetrahydro-2H-pyran-2-yl]oxy}-3,5,7,9,11,13-hexamethyl-6,14-dioxo-12-{[(2S,5R,7R)-2,4,5-trimethyl-1,4-oxazepan-7-yl]oxy}oxacyclotetradecan-4-yl 3-methylbutanoate] | 1.27 (≈ 1.35 µg/mL)

Same assay, conditions: minimum inhibitory concentration, Alamar blue, strain H37Rv, read-out: MIC (μM) MTb H37Rv

Row | SMILES | MIC [µM]
2 | CON=C1C[C@@H](C)O[C@@H](O[C@@H]2[C@@H](C)[C@H](O[C@H]3C[C@@H](C)N(C)C[C@H](C)O3)[C@@H](C)C(=O)O[C@H](C(C)CO[C@@H]3O[C@H](C)[C@@H](O)[C@@H](OC)[C@H]3OC)[C@H](C)[C@@H](OC(=O)CC(C)C)[C@@H](C)C(=O)[C@@](C)(O)C[C@@H]2C)[C@@H]1O (single isomer, unassigned) [Compound 1-a] | 2.05 (≈ 2.03 µg/mL)
3 | CON=C1C[C@@H](C)O[C@@H](O[C@@H]2[C@@H](C)[C@H](O[C@H]3C[C@@H](C)N(C)C[C@H](C)O3)[C@@H](C)C(=O)O[C@H](C(C)CO[C@@H]3O[C@H](C)[C@@H](O)[C@@H](OC)[C@H]3OC)[C@H](C)[C@@H](OC(=O)CC(C)C)[C@@H](C)C(=O)[C@@](C)(OC(=O)NC(C)(C)CNS(=O)(=O)c3ccccc3[N+](=O)[O-])C[C@@H]2C)[C@@H]1O (single isomer, unassigned) [Compound 5-a] | 0.34 (≈ 0.438 µg/mL)
4 | CON=C1C[C@@H](C)O[C@@H](O[C@@H]2[C@@H](C)[C@H](O[C@H]3C[C@H](C)N(C)C[C@H](C)O3)[C@@H](C)C(=O)O[C@H](C(C)CO[C@@H]3O[C@H](C)[C@@H](O)[C@@H](OC)[C@H]3OC)[C@H](C)[C@@H](OC(=O)CC(C)C)[C@@H](C)C(=O)[C@@](C)(OC(=O)NC(C)(C)CNS(=O)(=O)c3ccccc3[N+](=O)[O-])C[C@@H]2C)[C@@H]1O (single isomer, unassigned) [Compound 5-b] | 0.53 (≈ 0.683 µg/mL)
5 | CON=C1C[C@@H](C)O[C@@H](O[C@@H]2[C@@H](C)[C@H](O[C@H]3C[C@@H](C)N(C)C[C@H](C)O3)[C@@H](C)C(=O)O[C@H](C(C)CO[C@@H]3O[C@H](C)[C@@H](O)[C@@H](OC)[C@H]3OC)[C@H](C)[C@@H](OC(=O)CC(C)C)[C@@H](C)C(=O)[C@@](C)(OC(=O)NCc3ccccc3)C[C@@H]2C)[C@@H]1O (single isomer, unassigned) [Compound 7-a] | 0.54 (≈ 0.606 µg/mL)
6 | CON=C1C[C@@H](C)O[C@@H](O[C@@H]2[C@@H](C)[C@H](O[C@H]3C[C@H](C)N(C)C[C@H](C)O3)[C@@H](C)C(=O)O[C@H](C(C)CO[C@@H]3O[C@H](C)[C@@H](O)[C@@H](OC)[C@H]3OC)[C@H](C)[C@@H](OC(=O)CC(C)C)[C@@H](C)C(=O)[C@@](C)(OC(=O)NCc3ccccc3)C[C@@H]2C)[C@@H]1O (single isomer, unassigned) [Compound 7-b] | 0.52 (≈ 0.584 µg/mL)
7 | CON=C1C[C@@H](C)O[C@@H](O[C@@H]2[C@@H](C)[C@H](O[C@H]3CC(C)N(C)C[C@H](C)O3)[C@@H](C)C(=O)O[C@H](C(C)CO[C@@H]3O[C@H](C)[C@@H](O)[C@@H](OC)[C@H]3OC)[C@H](C)[C@@H](OC(=O)CC(C)C)[C@@H](C)C(=O)[C@@](C)(OC(=O)NC(C)(C)CNS(=O)(=O)c3cn[nH]c3[N+](=O)[O-])C[C@@H]2C)[C@@H]1O (stereo partly drawn) [Compound 4] | 0.21 (≈ 0.268 µg/mL)
8 | CON=C1C[C@@H](C)O[C@@H](O[C@@H]2[C@@H](C)[C@H](O[C@H]3CC(C)N(CCF)C[C@H](C)O3)[C@@H](C)C(=O)O[C@H](C(C)CO[C@@H]3O[C@H](C)[C@@H](O)[C@@H](OC)[C@H]3OC)[C@H](C)[C@@H](OC(=O)CC(C)C)[C@@H](C)C(=O)[C@@](C)(OC(=O)NCc3ccccc3)C[C@@H]2C)[C@@H]1O (stereo partly drawn) [Compound 6, (2R,3S,4R,5R,7S,9S,10S,11R,12S,13R)-7-[(benzylcarbamoyl)oxy]-12-{[(2S,7R)-4-(2-fluoroethyl)-2,5-dimethyl-1,4-oxazepan-7-yl]oxy}-2-(1-{[(2R,3R,4R,5R,6R)-5-hydroxy-3,4-dimethoxy-6-methyltetrahydro-2H-pyran-2-yl]oxy}propan-2-yl)-10-{[(2S,3R,6R)-3-hydroxy-4-(methoxyimino)-6-methyltetrahydro-2H-pyran-2-yl]oxy}-3,5,7,9,11,13-hexamethyl-6,14-dioxooxacyclotetradecan-4-yl 3-methylbutanoate] | 0.91 (≈ 1.05 µg/mL)
9 | CON=C1C[C@@H](C)O[C@@H](O[C@@H]2[C@@H](C)[C@H](O[C@H]3C[C@H](C)N(CC(C)(C)O)C[C@H](C)O3)[C@@H](C)C(=O)O[C@H]([C@@H](C)CO[C@@H]3O[C@H](C)[C@@H](O)[C@@H](OC)[C@H]3OC)[C@H](C)[C@@H](OC(=O)CC(C)C)[C@@H](C)C(=O)[C@@](C)(OC(=O)NCc3ccccc3)C[C@@H]2C)[C@@H]1O [Compound 11] | 0.63 (≈ 0.744 µg/mL)
10 | CON=C1C[C@@H](C)O[C@@H](O[C@@H]2[C@@H](C)[C@H](O[C@H]3C[C@@H](C)N(CC(C)(C)O)C[C@H](C)O3)[C@@H](C)C(=O)O[C@H]([C@@H](C)CO[C@@H]3O[C@H](C)[C@@H](O)[C@@H](OC)[C@H]3OC)[C@H](C)[C@@H](OC(=O)CC(C)C)[C@@H](C)C(=O)[C@@](C)(OC(=O)NCc3ccccc3)C[C@@H]2C)[C@@H]1O [Compound 12] | 0.6 (≈ 0.708 µg/mL)
11 | CON=C1C[C@@H](C)O[C@@H](O[C@@H]2[C@@H](C)[C@H](O[C@H]3CC(C)N(CC(=O)Nc4ccc5ccc(C)nc5n4)C[C@H](C)O3)[C@@H](C)C(=O)O[C@H]([C@@H](C)CO[C@@H]3O[C@H](C)[C@@H](O)[C@@H](OC)[C@H]3OC)[C@H](C)[C@@H](OC(=O)CC(C)C)[C@@H](C)C(=O)[C@@](C)(OC(=O)NCc3ccccc3)C[C@@H]2C)[C@@H]1O (stereo partly drawn) [Compound 51] | 0.29 (≈ 0.379 µg/mL)
12 | CON=C1C[C@@H](C)O[C@@H](O[C@@H]2[C@@H](C)[C@H](O[C@H]3C[C@@H](C)N(C)CC(C)O3)[C@@H](C)C(=O)O[C@H]([C@@H](C)CO[C@@H]3O[C@H](C)[C@@H](O)[C@@H](OC)[C@H]3OC)[C@H](C)[C@@H](OC(=O)CC(C)C)[C@@H](C)C(=O)[C@@](C)(OC(=O)NC(C)(C)CNS(=O)(=O)c3ccccc3)C[C@@H]2C)[C@@H]1O (stereo partly drawn) [Compound 70] | 0.46 (≈ 0.572 µg/mL)
